From patent US9718760B2, “Plasminogen activator inhibitor-1 inhibitors and methods of use thereof” (THE REGENTS OF THE UNIVERSITY OF MICHIGAN, priority 2012, dated 2017)
Values joined by “and” are separate entries in the source; they are usually repeats but may differ in a detail not shown here. Equal entries are not always repeated. Where two headings read alike, the source gives them in different places.

Target: recombinant active human PAI-1 (Homo sapiens (Human), UniProt P05121)
Experiment: Fluorometric PAI-1/uPA IC50 plate assay at pH 7.4
Assay type: biochemical
Protocol: To determine the efficacy of various synthesized compounds as PAI-1 inhibitors, a fluorometric plate assay was carried out to measure the half maximal inhibitory concentration (IC50) of these compounds on recombinant active human PAI-1 in vitro. An IC50 is a measure of the effectiveness of a compound in inhibiting biological or biochemical function. Stated another way, IC50 represents the concentration of a drug that is required for 50% inhibition in vitro.
PAI-1 inhibitor compounds were dissolved in DMSO to a final concentration of (10-50 mM), depending upon solubility. Compounds were then diluted in physiologic buffer (40 mM HEPES, 100 mM NaCl, 0.05% Tween-20, pH7.4) containing 10% DMSO and a dilution series (from 0 to 1000 uM depending on solubility) was prepared. 80 μL of compound was added per well to a 96-well black, opaque microplate in duplicate. 10 μL of 20 nM Recombinant active human PAI-1 (Molecular Innovations) in physiologic buffer (40 mM HEPES, 100 mM NaCl, 0.05% Tween-20, 10% DMSO, pH 7.4), or […] physiologic buffer with 10% human plasma, was added and the mixture was agitated for 15 minutes at room temperature. 10 μL of 25 nM uPA (Rheotromb®) was added to each reaction well and the plate was agitated for an additional 30 minutes at room temperature. Tripeptide aminomethylcoumarin Gly-Gly-Arg-AMC (Calbiochem) fluorogenic substrate (100 μL of 100 μM) was then added and residual uPA activity was determined based upon cleavage of this substrate. The rate of AMC release by uPA (fluorescence) was measured at an excitation wavelength of 370 nm and an emission wavelength of 440 nm. Controls included PAI-1 and uPA in the absence of compound and uPA alone. Percent PAI-1 inhibition was calculated using the following formula: [(uPA alone-uPA/PAI-1+ compound)/(uPA alone-PAI-1/uPA)]*100%. The IC50 was calculated using Graphit (IC50 0-100%).

[1] = physiologic buffer (40 mM HEPES, 100 mM NaCl, 0.05% Tween-20, 10% DMSO), read-out: PAI-1/uPA IC50 in buffer
[2] = physiologic buffer with 1.5% BSA (15 mg/mL), read-out: PAI-1/uPA IC50 in 1.5% BSA buffer
[3] = physiologic buffer with 10% human plasma, read-out: PAI-1/uPA IC50 in 10% plasma buffer

Sequence of recombinant active human PAI-1 (P05121 24-402): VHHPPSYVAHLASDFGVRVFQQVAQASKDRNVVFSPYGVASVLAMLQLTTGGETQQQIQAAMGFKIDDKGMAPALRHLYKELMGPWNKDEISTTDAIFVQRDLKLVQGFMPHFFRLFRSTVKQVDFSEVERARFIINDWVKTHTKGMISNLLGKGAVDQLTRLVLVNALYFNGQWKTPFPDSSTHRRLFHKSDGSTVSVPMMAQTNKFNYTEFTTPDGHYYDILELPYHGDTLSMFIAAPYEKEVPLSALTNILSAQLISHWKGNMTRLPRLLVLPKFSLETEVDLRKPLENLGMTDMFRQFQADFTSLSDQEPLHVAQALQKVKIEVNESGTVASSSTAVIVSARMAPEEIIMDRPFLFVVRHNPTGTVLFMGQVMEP

Compound | IC50 [1] | IC50 [2] | IC50 [3]
COc1ccc(-c2nc(-c3ccc4c(c3)CC(=O)N4)cs2)cc1OC [C227, 5-(2-(3,4-dimethoxyphenyl)thiazol-4-yl)indolin-2-one] | 205 µM | – | –
O=C1Cc2cc(-c3csc(-c4ccc(O)c(O)c4)n3)ccc2N1 [C228] | 14.8 µM | – | –
O=C1Cc2cc(S(=O)(=O)NCCc3ccccc3)ccc2N1 [C229, 2-oxo-N-phenethylindoline-5-sulfonamide] | 1290 µM | – | –
CCCCCNC(=O)C(=O)NN [C241] | 1930 µM | – | –
NNC(=O)C(=O)NCc1ccc(F)cc1 [C248] | 1190 µM and 1310 µM | 652 µM and 646 µM | 478 µM
NNC(=O)C(=O)NCc1ccc(Cl)c(C(F)(F)F)c1 [C251] | 68.6 µM and 76 µM | 110 µM and 123 µM | 108 µM
NNC(=O)C(=O)NCc1ccc(OC(F)(F)F)cc1 [C255] | 2060 µM and 1780 µM | 221 µM and 292 µM | 279 µM
CCOC(=O)C(=O)NCc1ccc(Br)cc1 [C259] | 2890 µM and 3140 µM | 625 µM and 760 µM | 526 µM
NNC(=O)C(=O)NCc1ccc(Br)cc1 [C260] | 147 µM and 187 µM | – | 525 µM
Cc1cc(CNC(=O)C(=O)NN)ccc1F [C262] | 170 µM and 187 µM | 63 µM and 84 µM | 86 µM
NNC(=O)C(=O)NCc1ccccc1F [C263] | 2840 µM | 1680 µM | 1360 µM
NNC(=O)C(=O)NCc1cccc(F)c1 [C264] | 2120 µM | 1180 µM | 1250 µM
NNC(=O)C(=O)NCc1cccc(Cl)c1 [C266] | 568 µM and 549 µM | 126 µM | 219 µM
CCOC(=O)C(=O)NCc1cccc(C(F)(F)F)c1 [C267] | 3790 µM | – | –
NNC(=O)C(=O)NCc1cccc(OC(F)(F)F)c1 [C268] | 135 µM and 134 µM | 65 µM | 77 µM
COC(=O)CCC(=O)NCc1ccc(F)c(C(F)(F)F)c1 [C276] | 1440 µM | 428 µM | 476 µM
COC(=O)CCC(=O)NCc1ccc(Cl)c(C(F)(F)F)c1 [C277] | 751 µM and 719 µM | 165 µM and 158 µM | 148 µM and 142 µM
O=C(NO)C(=O)NCc1ccc(Cl)c(C(F)(F)F)c1 [C280] | 207 µM and 203 µM | 166 µM and 159 µM | 168 µM
COc1ccc(CNC(=O)C(=O)NN)c(OC)c1 [C281] | 2290 µM | – | –
O=C(NO)NCc1ccc(Cl)c(C(F)(F)F)c1 [C284, 1-(4-chloro-3-(trifluoromethyl)benzyl)-3-hydroxyurea] | 2480 µM | – | –
O=C(NCc1ccc(Cl)c(C(F)(F)F)c1)c1n[nH]c(=O)o1 [C285, N-(4-chloro-3-(trifluoromethyl)benzyl)-5-oxo-4,5-dihydro-1,3,4-oxadiazole-2-carboxamide] | 422 µM and 388 µM | 265 µM | 306 µM
Cc1cc(C(=O)NCc2ccc(Cl)c(C(F)(F)F)c2)no1 [C286] | 580 µM | – | –

Compound | IC50 [1] | IC50 [2] | IC50 [3]
COC(=O)CCC(=O)NCc1cccc(C(F)(F)F)c1 [C288] | 2910 µM | 1060 µM | 752 µM
NNC(=O)CCC(=O)NCc1cccc(C(F)(F)F)c1 [C289] | 2730 µM | 1100 µM | 733 µM
COc1cccc(CNC(=O)C(=O)NN)c1 [C295] | 1340 µM | 776 µM | 736 µM
NNC(=O)C(=O)NCc1cccc(C(F)(F)F)c1 [C297] | 136 µM | 111 µM | 87 µM
Cc1cc(Cl)ccc1CNC(=O)C(=O)NO [C300] | 5490 µM | – | –
Cc1ccc(CNC(=O)C(=O)NN)cc1F [C305] | 224 µM | 81 µM | 62 µM
Cc1ccc(CNC(=O)c2n[nH]c(=O)o2)cc1F [C306] | 1160 µM | 403 µM | 405 µM
NNC(=O)C(=O)NCc1ccc(Cl)cc1F [C307] | 465 µM | 99 µM | 101 µM
CC(C)=NNC(=O)C(=O)NCc1cc(F)cc(F)c1 [C313] | 1200 µM | 532 µM | 490 µM
CONC(=O)C(=O)NCc1ccc(Cl)c(C(F)(F)F)c1 [C320, N-(4-chloro-3-(trifluoromethyl)benzyl)-N′-methoxyoxalamide] | 329 µM | 513 µM | 693 µM
COc1cc(CNC(=O)C(=O)NN)cc(OC)c1 [C322] | 4320 µM | – | –
CON(C)C(=O)C(=O)NCc1ccc(Cl)c(C(F)(F)F)c1 [C328] | 713 µM | 345 µM | 318 µM
NNC(=O)C(=O)NCc1cc(F)cc(F)c1 [C340] | 337 µM | 249 µM | 272 µM
Cc1ccc(F)cc1CNC(=O)C(=O)NN [C341] | 900 µM | 1460 µM | 1870 µM
O=C(CCc1ccc(O)c(O)c1)NCc1cccc(C(F)(F)F)c1 [C344] | 1000 µM | 830 µM | 866 µM
O=C(CCc1ccc(O)c(O)c1)NCc1ccc(C(F)(F)F)cc1 [C345] | 1470 µM | 673 µM | 539 µM
O=C(/C=C/c1ccc(O)c(O)c1)NCc1ccc(Cl)c(C(F)(F)F)c1 [C346] | 353 µM | – | –
O=C(NCc1ccc(Cl)c(C(F)(F)F)c1)c1ccc(O)c(O)c1 [C348] | 99 µM | 454 µM | 240 µM
O=C(CCc1ccc(O)c(O)c1)NCc1cccc(OC(F)(F)F)c1 [C357] | 1370 µM | 1230 µM | 567 µM
Cc1cc(CNC(=O)CCc2ccc(O)c(O)c2)ccc1F [C358] | 1500 µM | 1230 µM | 619 µM
O=C(CCc1ccc(O)c(O)c1)NCc1ccc(Cl)cc1 [C359] | 3370 µM | 2080 µM | 974 µM

Second part, the molecule after the results:

IC50 [1] | IC50 [2] | IC50 [3] | Compound
163 µM | – | – | O=C1Cc2cc(C(=O)CNCCNCC(=O)c3ccc4c(c3)CC(=O)N4)ccc2N1 [C225, 5,5′-(2,2′-(ethane-1,2-diylbis(azanediyl))bis(acetyl))bis(indolin-2-one)]
3770 µM and 3910 µM | 2220 µM and 1970 µM | 1210 µM | CCCCCCNC(=O)C(=O)NN [C240]
2560 µM | – | – | COc1ccc(CCNC(=O)C(=O)NN)cc1OC [C246]
1040 µM and 1350 µM | 204 µM and 235 µM | 214 µM | CCOC(=O)C(=O)NCc1ccc(Cl)c(C(F)(F)F)c1 [C256, ethyl 2-((4-chloro-3-(trifluoromethyl)benzyl)amino)-2-oxoacetate]
102 µM and 103 µM | 68 µM and 86 µM | 69 µM | NNC(=O)C(=O)NCc1ccc(F)c(C(F)(F)F)c1 [C261]
4020 µM | – | – | CCOC(=O)C(=O)NCc1cccc(Cl)c1 [C265]
640 µM and 642 µM | 118 µM and 130 µM | 142 µM | NNC(=O)CCC(=O)NCc1ccc(Cl)c(C(F)(F)F)c1 [C278]
539 µM and 593 µM | 545 µM and 504 µM | 680 µM | Cc1oncc1C(=O)NCc1ccc(Cl)c(C(F)(F)F)c1 [C279]
225 µM and 219 µM | 163 µM and 154 µM | 121 µM | Cc1cc(Cl)ccc1CNC(=O)C(=O)NN [C282]
1190 µM | 363 µM | 304 µM | NNC(=O)CCC(=O)NCc1ccc(F)c(C(F)(F)F)c1 [C287]
112 µM | 69 µM | 64 µM | NNC(=O)C(=O)NCc1ccc(C(F)(F)F)cc1 [C296]
238 µM | 739 µM | 628 µM | Cc1cc(Cl)ccc1CNC(=O)c1n[nH]c(=O)o1 [C299]
173 µM | 128 µM | 106 µM | NNC(=O)C(=O)NCc1cccc(Cl)c1Cl [C301]
162 µM | 90 µM | 74 µM | NNC(=O)C(=O)NCc1cc(F)c(F)c(F)c1 [C304]
1200 µM | – | – | O=C(O)C(=O)NCc1ccc(Cl)c(C(F)(F)F)c1 [C309, 2-((4-chloro-3-(trifluoromethyl)benzyl)amino)-2-oxoacetic acid]
189 µM | – | – | O=C(NCc1ccc(Cl)c(C(F)(F)F)c1)C(=O)NNS(=O)(=O)c1ccccc1 [C334]
5470 µM | 892 µM | 851 µM | N#Cc1ccc(CNC(=O)C(=O)NN)cc1 [C336]
282 µM | 247 µM | 303 µM | NNC(=O)C(=O)NCc1cc(C(F)(F)F)cc(C(F)(F)F)c1 [C339]
888 µM | 309 µM | 293 µM | O=C(Cc1ccc(O)c(O)c1)NCc1ccc(Cl)c(C(F)(F)F)c1 [C347]
1100 µM | 1240 µM | 544 µM | O=C(CCc1ccc(O)c(O)c1)NCc1cc(F)c(F)c(F)c1 [C356]
164 µM | 1670 µM | 771 µM | O=C(NCc1ccc(Br)cc1)c1ccc(O)c(O)c1 [C360]
